The supplement of paper PMC10307832

Tests used:
Assay in all cases: relative viability (nuclei count vs DMSO), 5 days (fraction); higher = more cells survive
[1] = compound: CCN(CCO)CCCC(C)Nc1ccnc2cc(Cl)ccc12 [Hydroxychloroquine] + Cc1nc(NC(=O)N2CCC[C@H]2C(N)=O)sc1-c1ccnc(C(C)(C)C(F)(F)F)c1 [Alpelisib] (partner 2 µM)
How it was run: (§1)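 For relative viability, nuclei counts in treated wells were divided by those in vehicle wells. Lung cancer cell lines had been pin-tool dosed in 1536-well plates the day after seeding and cultured for 5 days, then fixed and stained in one step (final 0.05% Triton X-100, 1% formaldehyde, 1 ug/ml Hoechst) and imaged at 4×. Doses were one drug alone or a fixed anchor-drug dose plus five library-drug doses (not always all listed) in √10 steps, and values are duplicate-plate medians.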

[2] = compound: CCN(CCO)CCCC(C)Nc1ccnc2cc(Cl)ccc12 [Hydroxychloroquine] + COc1cc2c(Oc3ccc(NC(=O)C4(C(=O)Nc5ccc(F)cc5)CC4)cc3F)ccnc2cc1OCCCN1CCOCC1 [Foretinib] (partner 0.25 µM)
How it was run: as §1

[3] = compound: CCN(CCO)CCCC(C)Nc1ccnc2cc(Cl)ccc12 [Hydroxychloroquine] + O=C(c1cc(Cc2n[nH]c(=O)c3ccccc23)ccc1F)N1CCN(C(=O)C2CC2)CC1 [Olaparib] (partner 8 µM)
How it was run: as §1

[4] = compound: CCN(CCO)CCCC(C)Nc1ccnc2cc(Cl)ccc12 [Hydroxychloroquine] + Nc1nc2[nH]cc(CCc3ccc(C(=O)N[C@@H](CCC(=O)O)C(=O)O)cc3)c2c(=O)[nH]1 [Pemetrexed] (partner 0.2 µM)
How it was run: as §1

Row | Cell Line | relative viability ([1]; first compound 0.5 µM) | relative viability ([1]; first compound 1.581 µM) | relative viability ([1]; first compound 5 µM) | relative viability ([1]; first compound 15.81 µM) | relative viability ([1]; first compound 50 µM) | relative viability ([2]; first compound 0.5 µM) | relative viability ([2]; first compound 1.581 µM) | relative viability ([2]; first compound 5 µM) | relative viability ([2]; first compound 15.81 µM) | relative viability ([2]; first compound 50 µM) | relative viability ([3]; first compound 0.5 µM) | relative viability ([3]; first compound 1.581 µM) | relative viability ([3]; first compound 5 µM) | relative viability ([3]; first compound 15.81 µM) | relative viability ([3]; first compound 50 µM) | relative viability ([4]; first compound 0.5 µM) | relative viability ([4]; first compound 1.581 µM) | relative viability ([4]; first compound 5 µM) | relative viability ([4]; first compound 15.81 µM) | relative viability ([4]; first compound 50 µM)
1 | NCI-H1755 | 0.925 | 0.877 | 0.908 | 0.956 | 0.911 | 0.906 | 0.797 | 0.854 | 0.922 | 0.842 | 0.861 | 0.841 | 0.841 | 0.912 | 0.827 | 0.573 | 0.426 | 0.42 | 0.386 | 0.438
2 | NCI-H2087 | 1.03 | 1.06 | 0.87 | 1.08 | 1.02 | 1.21 | 1.21 | 1.18 | 1.11 | 0.972 | 0.596 | 0.709 | 0.683 | 0.756 | 0.511 | 0.634 | 0.669 | 0.7 | 0.709 | 0.771
3 | NCI-H2228 | 0.705 | 0.546 | 0.682 | 0.549 | 0.735 | 0.809 | 0.862 | 0.839 | 0.969 | 0.834 | 0.716 | 0.75 | 0.575 | 0.653 | 0.623 | 0.329 | 0.352 | 0.348 | 0.311 | 0.331
4 | NCI-H838 | 1.04 | 0.946 | 0.983 | 1.04 | 1.08 | 1.07 | 0.978 | 1.08 | 0.98 | 1.13 | 0.783 | 0.801 | 0.804 | 0.803 | 0.809 | 0.238 | 0.248 | 0.264 | 0.243 | 0.253
5 | NCI-H661 | 0.665 | 0.567 | 0.795 | 0.547 | 0.481 | 0.998 | 0.992 | 1.01 | 1 | 1.05 | 0.782 | 0.695 | 0.743 | 0.684 | 0.69 | 0.962 | 0.904 | 0.91 | 0.877 | 0.872
6 | NCI-H596 | 0.461 | 0.463 | 0.546 | 0.606 | 0.492 | 0.758 | 0.669 | 0.875 | 0.823 | 0.855 | 0.668 | 0.711 | 0.77 | 0.716 | 0.604 | 0.547 | 0.481 | 0.45 | 0.479 | 0.489
7 | EBC-1 | 1.01 | 0.572 | 0.784 | 0.688 | 0.599 | 0.122 | 0.093 | 0.0998 | 0.11 | 0.132 | 0.711 | 0.766 | 0.722 | 0.772 | 0.573 |  |  |  |  | 
8 | NCI-H727 | 0.454 | 0.58 | 0.589 | 0.512 | 0.526 | 0.752 | 0.767 | 0.735 | 0.794 | 0.922 | 0.738 | 0.673 | 0.653 | 0.73 | 0.629 |  |  |  |  | 
9 | NCI-H1299 | 0.999 | 1.04 | 1.03 | 1.12 | 0.996 | 1.09 | 1.05 | 1.14 | 1.12 | 1.06 | 0.997 | 0.974 | 0.947 | 1.01 | 0.917 |  |  |  |  | 
